Test results as given in US6911453B2 (Aventis Pharma Deutschland GmbH, priority 2001, dated 2005).
Counter-ions that a name gives are not always drawn.

Target: T1, NHE3 (Homo sapiens, UniProt P48764)
T1 sequence (P48764 1-834): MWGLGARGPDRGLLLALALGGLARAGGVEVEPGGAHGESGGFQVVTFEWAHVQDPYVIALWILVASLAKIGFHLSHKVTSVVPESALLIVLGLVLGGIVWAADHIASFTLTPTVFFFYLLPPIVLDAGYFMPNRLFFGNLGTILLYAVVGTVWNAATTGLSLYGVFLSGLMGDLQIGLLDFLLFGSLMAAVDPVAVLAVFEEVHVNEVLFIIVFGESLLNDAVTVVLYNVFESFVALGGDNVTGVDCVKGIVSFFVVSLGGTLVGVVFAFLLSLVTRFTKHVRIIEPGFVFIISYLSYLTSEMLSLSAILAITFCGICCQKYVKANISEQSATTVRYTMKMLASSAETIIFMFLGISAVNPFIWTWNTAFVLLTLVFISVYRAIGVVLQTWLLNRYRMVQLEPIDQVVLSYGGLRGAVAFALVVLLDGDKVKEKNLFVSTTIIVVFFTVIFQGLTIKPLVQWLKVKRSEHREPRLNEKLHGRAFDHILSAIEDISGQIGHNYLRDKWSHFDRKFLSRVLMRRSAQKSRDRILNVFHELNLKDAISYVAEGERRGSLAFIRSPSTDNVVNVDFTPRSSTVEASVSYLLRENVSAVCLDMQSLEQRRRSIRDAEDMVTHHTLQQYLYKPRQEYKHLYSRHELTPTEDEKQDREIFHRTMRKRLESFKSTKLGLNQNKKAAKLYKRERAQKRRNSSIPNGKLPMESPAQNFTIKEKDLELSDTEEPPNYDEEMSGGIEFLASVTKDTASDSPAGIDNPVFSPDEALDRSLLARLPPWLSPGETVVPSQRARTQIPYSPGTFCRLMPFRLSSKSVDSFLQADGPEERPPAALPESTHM
Test: Recovery of intracellular pH (pHi) after acidification, BCECF fluorescence, NHE3
Type: cell-based
Conditions: inhibition of pH recovery after intracellular acidification; rate recorded for three minutes; BCECF-loaded cells
Method: In this test, the recovery in the intracellular pH (pHi) after an acidification is ascertained, which is initiated if the NHE is capable of functioning, even under bicarbonate-free conditions. For this purpose, the pHi was determined using the pH-sensitive fluorescent dye BCECF (Calbiochem, the precursor BCECF-AM is employed).
The cells were initially loaded with BCECF. The BCECF fluorescence was determined in a “Ratio Fluorescence Spectrometer” (Photon Technology International, South Brunswick, N.J., USA) at excitation wavelengths of 505 and 440 nm and an emission wavelength of 535 nm and converted into the pHi using calibration curves. The cells were incubated in NH4Cl buffer (pH 7.4) (NH4Cl buffer: 115 mM NaCl, 20 mM NH4Cl, 5 mM KCl, 1 mM CaCl2, 1 mM MgSO4, 20 mM Hepes, 5 mM glucose, 1 mg/ml BSA; a pH of 7.4 is adjusted with 1 M NaOH) even during the BCECF loading. The intracellular acidification was induced by adding 975 μl of an NH4Cl-free buffer (see below) to 25 μl aliquots of the cells incubated in NH4Cl buffer. The subsequent rate of pH recovery was recorded for two minutes with NHE1, five minutes with NHE2 and three minutes with NHE3. To calculate the inhibitory potency of the tested substances, the cells were initially investigated in buffers with which a complete or absolutely no pH recovery took place. For complete pH recovery (100%), the cells were incubated in Na^+-containing buffer (133.8 mM NaCl, 4.7 mM KCl, 1.25 mM CaCl2, 1.25 mM MgCl2, 0.97 mM Na2HPO4, 0.23 mM NaH2PO4, 5 mM Hepes, 5 mM glucose, a pH of 7.0 is adjusted with 1 M NaOH). To determine the 0% value, the cells were incubated in an Na^+-free buffer (133.8 mM choline chloride, 4.7 mM KCl, 1.25 mM CaCl2, 1.25 mM MgCl2, 0.97 mM K2HPO4, 0.23 mM KH2PO4, 5 mM Hepes, 5 mM glucose, a pH of 7.0 is adjusted with 1 M NaOH). The substances to be tested were made up in the Na^+-containing buffer. The recovery of the intracellular pH at each test concentration of a substance was expressed as a percentage of the maximum recovery. The IC50 value for the particular substance for the individual NHE subtypes was calculated from the pH recovery percentages using the Sigma-Plot program.

| Structure (SMILES) | IC50 |
| --- | --- |
| CC(=O)N1CCC(C(=O)Nc2cccc(C3CN(C)Cc4c(Cl)cc(Cl)cc43)c2)CC1 (stereo not shown) [Example 60] | 0.202 µM |
| CN(C)CC(=O)Nc1ccc(C2CN(C)Cc3c(Cl)cc(Cl)cc32)cc1 (stereo not shown) [Example 113] | 0.279 µM |
| CN1Cc2c(Cl)cc(Cl)cc2C(c2ccc(N)cc2)C1 (stereo not shown) [Example 17, 4-(6,8-Dichloro-2-methyl-1,2,3,4-tetrahydro-isoquinolin-4-yl)-phenylamine, Hydrochloride] | 0.049 µM |
| CC(=O)Nc1ccc(C2CN(C)Cc3c(Cl)cc(Cl)cc32)cc1.Cl (stereo not shown) [Example 1a, N-[4-(6,8-Dichloro-2-methyl-1,2,3,4-tetrahydro-isoquinolin-4-yl)-phenyl]-acetamide-hydrochloride] | 0.075 µM |
| CN1Cc2c(Cl)cc(Cl)cc2C(c2cccc(S(N)(=O)=O)c2)C1 (single isomer, unassigned; (+)) [Example 2b, (+)-3-(6,8-Dichloro-2-methyl-1,2,3,4-tetrahydro-isoquinolin-4-yl)-benzene-sulfonamide hydrochloride] | 0.026 µM |
| COC(=O)Nc1cccc(C2CN(C)Cc3c(Cl)cc(Cl)cc32)c1 (stereo not shown) [Example 207, [3-(6,8-Dichloro-2-methyl-1,2,3,4-tetrahydro-isoquinolin-4-yl)-phenyl]-carbamic acid methyl Ester—Hydrochloride Salt] | 0.186 µM |
| CC(=O)Nc1ccc(C2CN(C)Cc3c(C)cc(C)cc32)cc1 (stereo not shown) [Example 23, N-[4-(2,6,8-Trimethyl-1,2,3,4-tetrahydro-isoquinolin-4-yl)-phenyl]-acetamide] | 1.51 µM |
| CN1Cc2c(Cl)cc(Cl)cc2C(c2ccccc2N)C1 (stereo not shown) [Example 36, 2-(6,8-Dichloro-2-methyl-1,2,3,4-tetrahydro-isoquinolin-4-yl)-phenylamine] | 0.274 µM |
| CC(=O)Nc1ccc(C2CN(C)Cc3c(Cl)cc(Br)cc32)cc1 (stereo not shown) [Example 24, N-[4-(6-Bromo-8-chloro-2-methyl-1,2,3,4-tetrahydro-isoquinolin-4-yl)-phenyl]-acetamide] | 0.34 µM |
| CN1Cc2c(Cl)cc(Cl)cc2C(c2ccc(S(N)(=O)=O)cc2)C1 (single isomer, unassigned; (+)) [Example 2a, (+)-4-(6,8-Dichloro-2-methyl-1,2,3,4-tetrahydro-isoquinolin-4-yl)-benzene-sulfonamide hydrochloride] | 0.082 µM |
| CN1Cc2c(Cl)cc(Cl)cc2C(c2ccc(NC(=O)c3cc[nH]c3)cc2)C1 (stereo not shown) [Example 119] | 0.682 µM |
| CN1Cc2c(Cl)cc(Cl)cc2C(c2cccc(NS(=O)(=O)N(C)C)c2)C1 (stereo not shown) [Example 64] | 0.507 µM |

Other lines, results leading:

| IC50 | Structure (SMILES) |
| --- | --- |
| 0.695 µM | CN1Cc2c(Cl)cc(Cl)cc2C(c2cccc(NC(=O)C3CCN(S(C)(=O)=O)CC3)c2)C1 (stereo not shown) [Example 144] |
| 0.024 µM | CN1Cc2c(Cl)cc(Cl)cc2C(c2cccc(NC(=O)c3cn[nH]c3)c2)C1 (stereo not shown) [Example 146] |
| 0.73 µM | CNC(=S)Nc1ccccc1C1CN(C)Cc2c(Cl)cc(Cl)cc21 (stereo not shown) [Example 81, 1-[2-(6,8-Dichloro-2-methyl-1,2,3,4-tetrahydro-isoquinolin-4-yl)-phenyl]-3-methyl-thiourea, Trifluoroacetate] |
| 0.602 µM | CN1Cc2c(Cl)cc(Cl)cc2C(c2cccc(NC(=O)N3CCCCC3)c2)C1 (stereo not shown) [Example 153] |
| 0.308 µM | Cc1nc(S(=O)(=O)Nc2cccc(C3CN(C)Cc4c(Cl)cc(Cl)cc43)c2)cn1C (stereo not shown) [Example 97] |
| 0.418 µM | CN1Cc2c(Cl)cc(Cl)cc2C(c2ccc(NS(=O)(=O)C(F)(F)F)cc2)C1 (stereo not shown) [Example 87] |
| 1 µM | CN1Cc2c(Cl)cc(Cl)cc2C(c2ccc(N3CCOCC3)cc2)C1 (stereo not shown) [Example 10, 6,8-Dichloro-2-methyl-4-(4-morpholin-4-yl-phenyl)-1,2,3,4-tetrahydroisoquinoline, Trifluoroacetate] |
| 0.349 µM | CN1Cc2c(Cl)cc(Cl)cc2C(c2ccc(NS(C)(=O)=O)cc2)C1 (stereo not shown) [Example 48] |
| 0.215 µM | CCC(=O)Nc1cccc(C2CN(C)Cc3c(Cl)cc(Cl)cc32)c1 (stereo not shown) [Example 51] |
| 0.597 µM | CN1Cc2c(Cl)cc(Cl)cc2C(c2ccc(NC(=O)N3CCOCC3)cc2)C1 (stereo not shown) [Example 183] |
| 0.318 µM | CN1Cc2c(Cl)cc(Cl)cc2C(c2ccc(O)c(C(=O)O)c2)C1 (stereo not shown) [Example 29, 5-(6,8-Dichloro-2-methyl-1,2,3,4-tetrahydro-isoquinolin-4-yl)-2-hydroxy-benzoic acid] |
| 0.25 µM | CCNC(=O)c1ccc(C2CN(C)Cc3c(Cl)cc(Cl)cc32)cc1 (stereo not shown) [Example 7, 4-(6,8-Dichloro-2-methyl-1,2,3,4-tetrahydroisoquinolin-4-yl)-N-ethyl-benzamide, Trifluoroacetate] |
| 0.814 µM | CCNC(=O)Nc1ccc(C2CN(C)Cc3c(Cl)cc(Cl)cc32)cc1 (stereo not shown) [Example 21, 1-[4-(6,8-Dichloro-2-methyl-1,2,3,4-tetrahydro-isoquinolin-4-yl)-phenyl]-3-ethylurea] |
| 0.67 µM | CN1Cc2c(Cl)cc(Cl)cc2C(c2ccc(C(=O)O)cc2)C1 (stereo not shown) [Example 6, 4-(6,8-Dichloro-2-methyl-1,2,3,4-tetrahydro-isoquinolin-4-yl)-benzoic acid] |
| 0.252 µM | CNC(=O)N(C)c1cccc(C2CN(C)Cc3c(Cl)cc(Cl)cc32)c1 (single isomer, unassigned; (+)) [Example 199] |

System: not given
Test: not given
Conditions: not given

| Structure (SMILES) | melting point |
| --- | --- |
| CC(=O)Nc1ccc(C2CN(C)Cc3c(Cl)cc(Cl)cc32)cc1 (stereo not shown) | 205 to 206 °C |
| CN1Cc2c(Cl)cc(Cl)cc2C(c2ccc(Cl)c(S(N)(=O)=O)c2)C1 (stereo not shown) [Example 99] | 122 °C |
| CC(=O)Nc1ccc(C2CN(C)Cc3c(Cl)cc(Cl)cc32)cc1.Cl (stereo not shown) [Example 1a, N-[4-(6,8-Dichloro-2-methyl-1,2,3,4-tetrahydro-isoquinolin-4-yl)-phenyl]-acetamide-hydrochloride] | 125 °C (dec.) |
| CCNC(=O)Nc1ccc(C2CN(C)Cc3c(Cl)cc(Cl)cc32)cc1 (stereo not shown) [Example 21, 1-[4-(6,8-Dichloro-2-methyl-1,2,3,4-tetrahydro-isoquinolin-4-yl)-phenyl]-3-ethylurea] | 218 to 220 °C |
